This series in a line: cis/trans solubility ratio of 2,2,4,4-tetramethylcyclobutane-1,3-diol in a solvent. It counts as physicochemical. The protocol: The definition of cis/trans 2,2,4,4-tetramethylcyclobutane-1,3-diol solubility ratio is also known to one of ordinary skill in the art; in one embodiment, the cis/trans 2,2,4,4-tetramethylcyclobutane-1,3-diol solubility ratio can be defined as the ratio of the cis isomer solubility limit divided by the trans isomer solubility limit at a given temperature for a given solvent or solvents. For example, the cis/trans solubility ratio in water at 80° C. is about 1.0. For MIBC, the cis/trans solubility ratio at 80° C. is about 0.74.

`CC1(C)C(O)C(C)(C)C1O` (centres unmarked) [2,2,4,4-tetramethylcyclobutane-1,3-diol]: the “cis/trans solubility ratio (cis isomer solubility limit divided by trans isomer solubility limit)” value reads like this: (in MIBC at 80° C.) “about 0.74”; (in water at 80° C.) “about 1.0”.

The values above are taken from patent US9238603B1, “Batch process for the preparation of cis-2,2,4,4-tetramethylcyclobutane-1,3-diol” (EASTMAN CHEMICAL COMPANY, priority 2014, dated 2016).
